Experimental data as given in PubChem BioAssay (NCI).
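48-hour exposure; five concentrations; linearly interpolated endpoints. GI50: concentration for 50% inhibition of growth. TGI denotes the concentration required for complete inhibition of growth.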

Columns and labels:
Experiment in all cases: NCI tumour cell line growth inhibition, 48 h
[1] = system: 786-0 renal
[2] = system: HCC-2998 colon
[3] = system: HS 578T breast
[4] = system: MOLT-4 leukemia
[5] = system: SF-268 CNS
[6] = system: SF-539 CNS
[7] = system: SR leukemia
[8] = system: U251 CNS
[9] = system: UACC-257 melanoma
[10] = system: HOP-92 NSCLC

## Cn1c(CO)ccc1-c1ccc(-c2ccc(CO)[se]2)[se]1
[1]
  TGI: > 76 µM
[2]
  TGI: 22.5 µM
[3]
  TGI: > 100 µM
[4]
  TGI: > 51.2 µM
[5]
  TGI: > 100 µM
[6]
  TGI: > 100 µM
[7]
  TGI: > 100 µM
[8]
  TGI: 24.4 µM
[9]
  TGI: > 100 µM

## O=c1[nH]nc(Nc2ccc(Cl)cc2)c2nnn(C3CCCCC3)c12
[1]
  TGI: 31.4 µM
[2]
  TGI: > 100 µM
[10]
  TGI: 66 µM
[3]
  TGI: > 100 µM
[5]
  TGI: > 100 µM
[6]
  TGI: > 100 µM
[7]
  TGI: 43.3 µM
[8]
  TGI: 91 µM
[9]
  TGI: > 100 µM

## O=C(/C=C/c1ccccc1)c1cc(CN2CCOCC2)c(O)c(CN2CCOCC2)c1
[1]
  TGI: 29 µM
[2]
  TGI: 33.7 µM
[10]
  TGI: 26.9 µM
[3]
  TGI: > 100 µM
[4]
  TGI: 75.6 µM
[5]
  TGI: 46.6 µM
[6]
  TGI: 32.6 µM
[7]
  TGI: 24.2 µM
[8]
  TGI: 16.3 µM
[9]
  TGI: 31.1 µM

## Cc1ccc(C(=O)Nc2ccc(CP(=O)(O)O)cc2CP(=O)(O)O)cc1N
[1]
  TGI: > 100 µM
[2]
  TGI: > 100 µM
[10]
  TGI: > 100 µM
[3]
  TGI: > 100 µM
[4]
  TGI: > 100 µM
[5]
  TGI: > 100 µM
[6]
  TGI: > 100 µM
[7]
  TGI: > 100 µM
[8]
  TGI: > 100 µM
[9]
  TGI: > 100 µM

## CN(Cc1cnc2nc(N)nc(N)c2n1)c1ccc(C(=O)NC(CCC(=O)O)C(=O)O)c2ccccc12 (stereo unspecified)
[1]
  TGI: > 1000 µM
[10]
  GI50: > 1000 µM
  TGI: > 1000 µM
[3]
  GI50: > 1000 µM
  TGI: > 1000 µM
[4]
  TGI: > 1000 µM
[5]
  TGI: > 1000 µM
[7]
  TGI: > 1000 µM
[8]
  GI50: 293 µM
  TGI: > 1000 µM
[9]
  GI50: < 0.0363 µM

## O=C1Nc2noc(=O)nc2NO1
[1]
  TGI: > 200 µM
[2]
  TGI: > 200 µM
[10]
  TGI: > 200 µM
[3]
  TGI: > 200 µM
[4]
  TGI: > 200 µM
[5]
  TGI: > 200 µM
[6]
  TGI: > 200 µM
[8]
  TGI: > 200 µM
[9]
  TGI: > 200 µM

## O=S(Nc1ccccc1)c1ccc(Cl)cc1 (stereo unspecified)
[1]
  TGI: > 100 µM
[2]
  TGI: > 100 µM
[3]
  TGI: > 100 µM
[4]
  TGI: > 100 µM
[5]
  TGI: 82.9 µM
[6]
  TGI: 46.7 µM
[7]
  TGI: > 100 µM
[8]
  TGI: > 100 µM
[9]
  TGI: > 100 µM

## Cc1ccc(S(=O)(=O)N/N=c2/sc3ccccc3n2C)cc1
[1]
  TGI: > 100 µM
[2]
  TGI: > 100 µM
[10]
  TGI: > 100 µM
[3]
  TGI: > 100 µM
[4]
  TGI: > 100 µM
[5]
  TGI: > 100 µM
[6]
  TGI: > 100 µM
[7]
  TGI: > 100 µM
[8]
  TGI: > 100 µM
[9]
  TGI: > 100 µM

## CC(=O)OC12c3ccccc3C(c3ccccc31)C1C(=O)N(N=C(C)C)C(=O)C12 (stereo unspecified)
[1]
  TGI: > 100 µM
[2]
  TGI: > 100 µM
[3]
  TGI: > 100 µM
[4]
  TGI: > 100 µM
[5]
  TGI: > 100 µM
[6]
  TGI: > 100 µM
[7]
  TGI: > 100 µM
[8]
  TGI: > 100 µM
[9]
  TGI: > 100 µM

## C[n+]1c2ccccc2n2c3ccccc3c(NCCCn3ccnc3)c(C#N)c21
[1]
  TGI: 10.6 µM
[2]
  TGI: 3.1 µM
[10]
  TGI: > 20.2 µM
[3]
  TGI: 6.78 µM
[4]
  TGI: > 35.7 µM
[5]
  TGI: 6.98 µM
[6]
  TGI: 24.5 µM
[7]
  TGI: > 100 µM
[8]
  TGI: > 33 µM
[9]
  TGI: 35.5 µM

## O=C(N/N=C/c1ccccc1)c1c(F)c(F)c(F)c(F)c1F
[2]
  TGI: > 100 µM
[10]
  TGI: > 100 µM
[3]
  TGI: > 100 µM
[4]
  TGI: > 100 µM
[5]
  TGI: > 100 µM
[6]
  TGI: > 100 µM
[7]
  TGI: > 100 µM
[8]
  TGI: > 100 µM
[9]
  TGI: > 100 µM

## Cc1cc2nc(N3C(=O)/C(=C/Cc4ccco4)N=C3c3ccccc3)sc2cc1C
[1]
  TGI: 96.6 µM
[2]
  TGI: 55.7 µM
[10]
  TGI: 60.5 µM
[3]
  TGI: > 100 µM
[4]
  TGI: > 100 µM
[5]
  TGI: > 100 µM
[6]
  TGI: > 100 µM
[7]
  TGI: > 100 µM
[8]
  TGI: > 100 µM
[9]
  TGI: > 100 µM

## CC1(C)C(=O)/C(=C/c2ccccc2)C(C)(C)C1(C)C
[1]
  TGI: > 100 µM
[2]
  TGI: > 100 µM
[10]
  TGI: > 100 µM
[3]
  TGI: > 100 µM
[4]
  TGI: > 100 µM
[6]
  TGI: > 100 µM
[7]
  TGI: > 74.2 µM
[8]
  TGI: > 100 µM
[9]
  TGI: > 100 µM

## COc1cc2c(cc1OC)C1=C(C=O)c3ccc(OC)c(OC)c3C(O)N1CC2 (stereo unspecified)
[1]
  TGI: > 100 µM
[2]
  TGI: 31.7 µM
[3]
  TGI: > 100 µM
[4]
  TGI: > 100 µM
[5]
  TGI: > 100 µM
[6]
  TGI: 64.8 µM
[8]
  TGI: 45.9 µM
[9]
  TGI: 50 µM

## COc1cc(C=O)cc(C=Nc2ccc(Br)cc2)c1O
[2]
  TGI: 38.9 µM
[10]
  TGI: 39.6 µM
[3]
  TGI: 5.26 µM
[4]
  TGI: 62.4 µM
[5]
  TGI: 27.8 µM
[6]
  TGI: 7 µM
[7]
  TGI: 40.8 µM
[8]
  TGI: > 100 µM
[9]
  TGI: 34 µM

## CC(C)=CC1C(C(=O)OCc2cc3c(cc2Cl)OCO3)C1(C)C (stereo unspecified)
[1]
  TGI: > 100 µM
[2]
  TGI: 58 µM
[10]
  TGI: > 100 µM
[3]
  TGI: > 100 µM
[4]
  TGI: 31.5 µM
[5]
  TGI: > 100 µM
[7]
  TGI: 33.4 µM
[8]
  TGI: 35.1 µM
[9]
  TGI: 48.1 µM

## COC(=O)CCC(C)[C@H]1CCC2C3CC[C@@H]4CC5(CC[C@]4(C)C3C[C@H](OC(C)=O)[C@@]21C)OOC1(CCCCC1)OO5 (stereo partly specified)
[1]
  TGI: > 100 µM
[2]
  TGI: 9.2 µM
[10]
  TGI: > 100 µM
[3]
  TGI: > 100 µM
[4]
  TGI: > 100 µM
[5]
  TGI: > 100 µM
[6]
  TGI: > 100 µM
[7]
  TGI: > 100 µM
[8]
  TGI: > 100 µM
[9]
  TGI: > 100 µM

## CC(C)(C)C(=O)c1c(O)c2ccccc2c2ccccc2c1=O
[1]
  TGI: > 100 µM
[10]
  TGI: > 100 µM
[3]
  TGI: > 100 µM
[4]
  TGI: > 100 µM
[5]
  TGI: > 100 µM
[6]
  TGI: > 100 µM
[8]
  TGI: > 100 µM
[9]
  TGI: > 100 µM

## O=C(/C=C\c1ccccc1)Oc1ccc(/C=C2\CCC/C(=C\c3ccc(OC(=O)/C=C\c4ccccc4)cc3)C2=O)cc1
[1]
  TGI: > 100 µM
[2]
  TGI: > 100 µM
[10]
  TGI: > 100 µM
[3]
  TGI: > 100 µM
[4]
  TGI: > 100 µM
[5]
  TGI: > 100 µM
[6]
  TGI: > 100 µM
[7]
  TGI: > 100 µM
[8]
  TGI: > 100 µM
[9]
  TGI: > 100 µM

## Cc1ccc(S(=O)(=O)NC(=O)Nc2ccc(C(=O)O)cc2)cc1
[1]
  TGI: > 100 µM
[10]
  TGI: > 100 µM
[3]
  TGI: > 100 µM
[4]
  TGI: > 100 µM
[5]
  TGI: > 100 µM
[6]
  TGI: > 100 µM
[8]
  TGI: > 100 µM
[9]
  TGI: > 100 µM

## CCCCCCCCCCCCCCCCNc1nc(=O)n(C2OC(C)C(O)C2O)cc1F (stereo unspecified)
[1]
  TGI: 35.6 µM
[2]
  TGI: 31 µM
[10]
  TGI: 45.7 µM
[3]
  TGI: 56.3 µM
[4]
  TGI: 62.2 µM
[5]
  TGI: 44.5 µM
[6]
  TGI: 33.5 µM
[7]
  TGI: > 100 µM
[8]
  TGI: 54.4 µM
[9]
  TGI: 35.5 µM

## CN(C)c1cccc2c(S(=O)(=O)NCCN)cccc12
[1]
  TGI: > 100 µM
[2]
  TGI: > 100 µM
[10]
  TGI: > 100 µM
[3]
  TGI: > 100 µM
[4]
  TGI: > 100 µM
[5]
  TGI: > 100 µM
[6]
  TGI: > 100 µM
[7]
  TGI: > 100 µM
[8]
  TGI: > 100 µM
[9]
  TGI: > 100 µM
